Activity calls are given as the source filed them.
What was measured:
[1] = system: Streptococcus sp. 'group A'; assay: Streptococcus pyogenes SK(-)GAS viability under kanamycin – luminescence, BacTiterGlo, confirmation, counter-screen for streptokinase expression inhibitor project, dose response (AID 1900); assay type: functional, organism-based
[2] = Luminescence Cell-Based Dose Retest to Confirm Inhibitors of Cancer Stem Cells. [Related pubchem assays (depositor defined):AID2717, AID2721]; assay type: functional; conditions: Homo sapiens
Streptococcus = assay: GAS UMAA2166 growth inhibition – luminescence, BacTiterGlo, counter-screen for streptokinase expression inhibitor project, dose response (AID 1915); assay type: functional, organism-based;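 note: potency for reduction of bacterial viability or growth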
Streptokinase A = molecular target: T1, Streptokinase A (Streptococcus pyogenes serotype M1, UniProt P10520); assay: viability-normalized secreted streptokinase activity reduction – plasminogen activation absorbance, OD405, dose response (AID 1914); assay type: functional, Streptococcus pyogenes M1 GAS;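 note: secreted streptokinase activity via plasminogen activation per viability signal from cell pellet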
T1 sequence (P10520 whole entry): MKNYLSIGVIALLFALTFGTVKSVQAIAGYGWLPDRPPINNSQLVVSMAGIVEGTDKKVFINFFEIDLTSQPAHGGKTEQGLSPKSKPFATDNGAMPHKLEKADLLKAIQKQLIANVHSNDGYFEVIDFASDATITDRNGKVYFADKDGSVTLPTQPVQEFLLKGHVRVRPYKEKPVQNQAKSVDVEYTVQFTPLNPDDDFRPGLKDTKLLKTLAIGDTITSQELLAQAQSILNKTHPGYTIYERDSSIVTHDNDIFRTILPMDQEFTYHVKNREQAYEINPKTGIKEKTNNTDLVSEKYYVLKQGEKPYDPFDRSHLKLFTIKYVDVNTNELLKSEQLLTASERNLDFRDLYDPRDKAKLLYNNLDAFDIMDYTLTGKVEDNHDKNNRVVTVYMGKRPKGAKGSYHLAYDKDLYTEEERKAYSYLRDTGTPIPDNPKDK

[3] = antiviral protection against BTV-induced cell death – arbovirus, BSR cells, confirmation (AID 1250); assay type: functional;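 note: protection from viral cytopathic effect measured as cell viability by ATP luminescence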
Estrogen receptor = Estrogen receptor (Homo sapiens, UniProt P03372); assay: ERα coactivator recruitment enhancers – biochemical, TR-FRET, ERα LBD, dose response (AID 737)
[4] = molecular target: Protein-tyrosine kinase 2-beta (Homo sapiens, UniProt Q14289);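 note: potency of inhibitors of PYK2 kinase phosphorylation of poly-GT substrate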
Cytochrome P450 2C9 = Cytochrome P450 2C9 (Homo sapiens, UniProt P11712)
[5] = molecular target: T2, Replicative DNA helicase DnaB (Mycobacterium tuberculosis, UniProt P9WMR3); assay: DnaB intein splicing inhibitors, dose response, biochemical, cell-free fluorescence (AID 449749); assay type: functional
T2 sequence (P9WMR3 whole entry): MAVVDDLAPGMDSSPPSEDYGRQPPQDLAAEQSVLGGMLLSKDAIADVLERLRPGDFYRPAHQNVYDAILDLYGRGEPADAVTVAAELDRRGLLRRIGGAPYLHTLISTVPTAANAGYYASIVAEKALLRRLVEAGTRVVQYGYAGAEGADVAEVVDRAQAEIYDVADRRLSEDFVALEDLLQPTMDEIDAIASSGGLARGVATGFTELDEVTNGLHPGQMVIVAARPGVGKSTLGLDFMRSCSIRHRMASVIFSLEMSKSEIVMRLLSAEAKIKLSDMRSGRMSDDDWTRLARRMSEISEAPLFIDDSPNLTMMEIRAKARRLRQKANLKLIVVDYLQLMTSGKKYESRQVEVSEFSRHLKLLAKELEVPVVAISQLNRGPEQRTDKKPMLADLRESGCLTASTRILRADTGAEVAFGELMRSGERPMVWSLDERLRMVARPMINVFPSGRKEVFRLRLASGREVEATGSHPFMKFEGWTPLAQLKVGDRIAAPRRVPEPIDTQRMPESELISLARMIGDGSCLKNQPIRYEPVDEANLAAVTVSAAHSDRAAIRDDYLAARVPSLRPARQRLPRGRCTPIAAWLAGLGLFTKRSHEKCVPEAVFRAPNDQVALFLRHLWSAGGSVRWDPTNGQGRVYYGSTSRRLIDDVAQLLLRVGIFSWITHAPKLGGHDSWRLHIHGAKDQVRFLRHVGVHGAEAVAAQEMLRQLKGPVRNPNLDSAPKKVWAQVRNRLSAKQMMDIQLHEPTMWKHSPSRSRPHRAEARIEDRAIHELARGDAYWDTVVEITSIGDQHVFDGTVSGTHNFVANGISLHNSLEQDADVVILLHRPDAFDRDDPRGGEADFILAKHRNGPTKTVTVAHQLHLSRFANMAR

Cytochrome P450 2C19 = Cytochrome P450 2C19 (Homo sapiens, UniProt P33261); assay: Cytochrome panel assay with activity outcomes. Panel member name: p450-cyp2c19 Compounds with AC50 equal or less than 10 uM are considered active; assay type: functional; conditions: read-out: AC50
Protein RecA = molecular target: T3, Protein RecA (Mycobacterium tuberculosis, UniProt P9WHJ3); assay: Fluorescence Cell-Free Homogeneous Dose Retest to Identify Inhibitors of RecA-Intein Splicing Activity. [Related pubchem assays (depositor defined):AID2097, AID2223, AID489010, AID492950]; assay type: functional
T3 sequence (P9WHJ3 whole entry): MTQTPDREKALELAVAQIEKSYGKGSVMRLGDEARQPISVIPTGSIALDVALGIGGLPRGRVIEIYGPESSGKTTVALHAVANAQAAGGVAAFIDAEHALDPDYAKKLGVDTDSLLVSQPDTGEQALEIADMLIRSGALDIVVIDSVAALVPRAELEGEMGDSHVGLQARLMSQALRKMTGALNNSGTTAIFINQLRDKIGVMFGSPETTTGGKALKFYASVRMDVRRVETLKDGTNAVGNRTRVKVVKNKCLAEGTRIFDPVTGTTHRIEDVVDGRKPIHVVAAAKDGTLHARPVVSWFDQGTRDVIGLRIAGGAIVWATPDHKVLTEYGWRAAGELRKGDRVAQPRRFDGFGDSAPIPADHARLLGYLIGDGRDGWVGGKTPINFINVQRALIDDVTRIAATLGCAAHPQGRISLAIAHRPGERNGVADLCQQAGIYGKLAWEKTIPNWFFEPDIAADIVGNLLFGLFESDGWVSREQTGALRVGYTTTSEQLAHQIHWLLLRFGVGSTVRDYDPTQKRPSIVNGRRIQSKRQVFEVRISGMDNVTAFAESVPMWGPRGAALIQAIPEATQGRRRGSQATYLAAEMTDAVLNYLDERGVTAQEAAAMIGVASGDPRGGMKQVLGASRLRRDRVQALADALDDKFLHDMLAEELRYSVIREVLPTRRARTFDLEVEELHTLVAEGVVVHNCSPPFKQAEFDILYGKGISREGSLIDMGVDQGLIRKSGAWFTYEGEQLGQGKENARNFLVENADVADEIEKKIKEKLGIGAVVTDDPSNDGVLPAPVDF

Prothrombin = Prothrombin (Homo sapiens, UniProt P00734); assay: Thrombin 1536 HTS Dose Response Confirmation. [Related pubchem assays: 1046 (Thrombin 1536 HTS; hits were confirmed in this assay)]; assay type: functional
[6] = decrease of insulin promoter-GFP reporter – imaging, high-content screening, mouse beta cells (AID 1628); assay type: functional; conditions: MIN6
Paired box protein Pax-8 = Paired box protein Pax-8 (Homo sapiens, UniProt Q06710); assay: PAX8 transcriptional activity inhibition in RMG-I – RMG-I cells, luciferase, cherry-pick, dose response (AID 687027); assay type: functional, cell-based;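 note: luciferase reporter driven by Pax8 target thyroperoxidase promoter measured by SteadyGlo luminescence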
[7] = MIN6 cell viability loss – mouse insulinoma, cytotoxicity control, dose response (AID 2122); assay type: functional;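 note: confirmatory high-throughput counterscreen run to flag cytotoxic compounds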
INS1 = assay: INS-1E survival protection against cytokine death – cell-based, luminescence, retest, dose response (AID 449756); assay type: functional; conditions: Rattus norvegicus;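 note: cell death triggered by IL-1 beta plus TNF-alpha plus IFN-gamma mixture; protective hits raise ATP signal compared with cytokine alone wells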
BJ [8] = assay: BJ-TERT-LT-ST fibroblast viability loss – cell-based, RAS-independent, luminescence, dose response (AID 1935); assay type: functional; conditions: Homo sapiens;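 note: BJ fibroblasts immortalized with TERT plus LT and ST oncogenes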
BJ [9] = assay: BJ-TERT fibroblast viability loss – cell-based, RAS-independent, luminescence, dose response (AID 1933); assay type: functional; conditions: Homo sapiens
BJ [10] = assay: growth inhibition of engineered Ras-driven BJ cells – cell-based, alamar blue fluorescence, cherrypicked samples, dose response (AID 2631); assay type: functional; conditions: Homo sapiens;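 note: confirmatory dose-response assay in RAS-dependent BJ fibroblasts engineered with TERT, LT and ST, with cytotoxicity read by fluorescence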
BJ [11] = assay: cells; assay type: functional, cell-based; conditions: Homo sapiens
[12] = Luminescence-based dose response cell-based high throughput screening assay for cytotoxic compounds using the IEC-6 intestinal epithelial cell line. [Related pubchem assays: 1858 (Summary AID.), 1825 (Counterscreen.), 1907 (Confirmation screen.)]; assay type: functional
[13] = DRD fibroblast viability loss – cell-based, non-viral oncogenic, luminescence, dose response (AID 1934); assay type: functional; conditions: Homo sapiens
14-3-3 protein gamma = 14-3-3 protein gamma (Homo sapiens, UniProt P61981); assay: modulators of 14-3-3 gamma client binding – dose response (AID 711); assay type: functional
[14] = molecular target: 5-hydroxytryptamine receptor 1A (Homo sapiens, UniProt P08908); assay type: functional
5-hydroxytryptamine receptor 1A, sequence (P08908 whole entry): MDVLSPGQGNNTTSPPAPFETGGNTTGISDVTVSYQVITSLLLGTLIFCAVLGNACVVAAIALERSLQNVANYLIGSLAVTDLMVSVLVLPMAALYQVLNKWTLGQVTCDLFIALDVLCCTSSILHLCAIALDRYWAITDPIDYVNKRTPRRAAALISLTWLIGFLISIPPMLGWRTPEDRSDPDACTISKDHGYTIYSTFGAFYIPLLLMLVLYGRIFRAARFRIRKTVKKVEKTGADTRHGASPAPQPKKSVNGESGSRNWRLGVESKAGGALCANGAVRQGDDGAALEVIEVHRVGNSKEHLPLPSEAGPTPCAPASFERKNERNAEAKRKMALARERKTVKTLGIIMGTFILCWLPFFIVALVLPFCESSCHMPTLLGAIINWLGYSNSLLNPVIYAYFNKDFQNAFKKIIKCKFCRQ

14-3-3 protein gamma, sequence (P61981 whole entry): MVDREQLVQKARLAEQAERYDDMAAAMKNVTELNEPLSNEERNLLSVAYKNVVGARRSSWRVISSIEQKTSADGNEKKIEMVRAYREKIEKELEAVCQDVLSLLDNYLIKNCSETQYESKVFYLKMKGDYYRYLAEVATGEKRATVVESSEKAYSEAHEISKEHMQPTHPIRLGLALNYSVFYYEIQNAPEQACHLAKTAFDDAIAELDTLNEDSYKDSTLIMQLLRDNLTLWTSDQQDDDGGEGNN
Paired box protein Pax-8, sequence (Q06710 whole entry): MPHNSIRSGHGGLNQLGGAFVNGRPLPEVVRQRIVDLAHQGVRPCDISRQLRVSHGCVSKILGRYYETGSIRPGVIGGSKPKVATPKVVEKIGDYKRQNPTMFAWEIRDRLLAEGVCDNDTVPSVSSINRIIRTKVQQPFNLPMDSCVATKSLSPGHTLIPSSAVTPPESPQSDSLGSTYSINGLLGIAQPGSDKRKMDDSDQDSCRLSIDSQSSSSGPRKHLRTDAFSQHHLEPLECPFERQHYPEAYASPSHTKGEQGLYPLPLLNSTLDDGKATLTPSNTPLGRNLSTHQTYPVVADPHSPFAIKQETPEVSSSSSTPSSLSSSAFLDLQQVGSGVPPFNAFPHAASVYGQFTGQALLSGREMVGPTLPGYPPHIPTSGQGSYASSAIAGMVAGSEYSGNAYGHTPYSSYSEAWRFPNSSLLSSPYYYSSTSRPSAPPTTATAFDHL
Cytochrome P450 2C9, sequence (P11712 whole entry): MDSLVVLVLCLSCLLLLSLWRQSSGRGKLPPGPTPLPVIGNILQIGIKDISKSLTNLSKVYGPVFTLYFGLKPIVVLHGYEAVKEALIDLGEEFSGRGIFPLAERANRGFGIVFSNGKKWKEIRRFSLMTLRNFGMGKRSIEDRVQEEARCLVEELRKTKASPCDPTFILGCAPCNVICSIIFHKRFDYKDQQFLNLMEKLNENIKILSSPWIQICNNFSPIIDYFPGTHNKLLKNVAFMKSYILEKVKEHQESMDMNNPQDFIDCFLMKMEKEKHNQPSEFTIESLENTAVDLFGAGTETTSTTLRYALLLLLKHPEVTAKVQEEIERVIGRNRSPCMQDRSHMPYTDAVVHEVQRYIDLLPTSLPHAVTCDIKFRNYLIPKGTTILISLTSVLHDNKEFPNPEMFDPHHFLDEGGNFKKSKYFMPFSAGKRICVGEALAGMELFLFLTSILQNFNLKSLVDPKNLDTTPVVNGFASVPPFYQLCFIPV
Protein-tyrosine kinase 2-beta, sequence (Q14289 whole entry): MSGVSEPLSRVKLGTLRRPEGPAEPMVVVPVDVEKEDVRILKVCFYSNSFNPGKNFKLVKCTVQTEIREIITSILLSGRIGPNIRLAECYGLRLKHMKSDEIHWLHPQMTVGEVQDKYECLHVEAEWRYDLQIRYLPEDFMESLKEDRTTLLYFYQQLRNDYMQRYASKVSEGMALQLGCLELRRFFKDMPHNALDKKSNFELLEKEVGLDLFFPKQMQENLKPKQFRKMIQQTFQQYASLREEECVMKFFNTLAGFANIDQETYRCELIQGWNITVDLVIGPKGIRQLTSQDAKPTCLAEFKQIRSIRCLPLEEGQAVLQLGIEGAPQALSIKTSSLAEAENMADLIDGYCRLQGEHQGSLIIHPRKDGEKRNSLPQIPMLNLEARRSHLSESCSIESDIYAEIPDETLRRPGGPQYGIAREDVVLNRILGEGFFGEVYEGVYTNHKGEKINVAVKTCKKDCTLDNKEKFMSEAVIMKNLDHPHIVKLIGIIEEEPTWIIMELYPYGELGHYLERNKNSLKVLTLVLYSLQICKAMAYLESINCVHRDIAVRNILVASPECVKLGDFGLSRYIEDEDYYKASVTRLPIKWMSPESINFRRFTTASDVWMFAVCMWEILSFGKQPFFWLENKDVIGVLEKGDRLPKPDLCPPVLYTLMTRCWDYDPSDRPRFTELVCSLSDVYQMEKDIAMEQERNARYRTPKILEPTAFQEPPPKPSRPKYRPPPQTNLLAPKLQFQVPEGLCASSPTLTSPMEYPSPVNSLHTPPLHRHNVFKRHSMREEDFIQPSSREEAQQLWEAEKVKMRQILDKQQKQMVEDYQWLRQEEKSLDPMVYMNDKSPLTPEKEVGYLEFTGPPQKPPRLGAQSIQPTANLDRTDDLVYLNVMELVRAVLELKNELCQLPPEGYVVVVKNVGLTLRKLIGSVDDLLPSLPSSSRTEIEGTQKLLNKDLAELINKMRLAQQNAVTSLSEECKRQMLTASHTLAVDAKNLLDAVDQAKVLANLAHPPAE
Cytochrome P450 2C19, sequence (P33261 whole entry): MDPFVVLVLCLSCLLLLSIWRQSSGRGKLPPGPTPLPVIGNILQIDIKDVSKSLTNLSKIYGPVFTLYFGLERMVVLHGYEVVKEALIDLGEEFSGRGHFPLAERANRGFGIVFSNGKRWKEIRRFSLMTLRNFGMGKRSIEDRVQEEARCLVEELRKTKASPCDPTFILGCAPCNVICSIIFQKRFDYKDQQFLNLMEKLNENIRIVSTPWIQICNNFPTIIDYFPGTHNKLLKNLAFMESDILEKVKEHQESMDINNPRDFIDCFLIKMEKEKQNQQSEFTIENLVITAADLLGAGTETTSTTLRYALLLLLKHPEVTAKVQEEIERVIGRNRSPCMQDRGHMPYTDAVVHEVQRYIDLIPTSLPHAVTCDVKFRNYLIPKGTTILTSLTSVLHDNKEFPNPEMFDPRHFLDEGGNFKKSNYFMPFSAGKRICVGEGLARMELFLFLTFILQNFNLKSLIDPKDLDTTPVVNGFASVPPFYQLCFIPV
Estrogen receptor, sequence (P03372 whole entry, the tested form may be a part): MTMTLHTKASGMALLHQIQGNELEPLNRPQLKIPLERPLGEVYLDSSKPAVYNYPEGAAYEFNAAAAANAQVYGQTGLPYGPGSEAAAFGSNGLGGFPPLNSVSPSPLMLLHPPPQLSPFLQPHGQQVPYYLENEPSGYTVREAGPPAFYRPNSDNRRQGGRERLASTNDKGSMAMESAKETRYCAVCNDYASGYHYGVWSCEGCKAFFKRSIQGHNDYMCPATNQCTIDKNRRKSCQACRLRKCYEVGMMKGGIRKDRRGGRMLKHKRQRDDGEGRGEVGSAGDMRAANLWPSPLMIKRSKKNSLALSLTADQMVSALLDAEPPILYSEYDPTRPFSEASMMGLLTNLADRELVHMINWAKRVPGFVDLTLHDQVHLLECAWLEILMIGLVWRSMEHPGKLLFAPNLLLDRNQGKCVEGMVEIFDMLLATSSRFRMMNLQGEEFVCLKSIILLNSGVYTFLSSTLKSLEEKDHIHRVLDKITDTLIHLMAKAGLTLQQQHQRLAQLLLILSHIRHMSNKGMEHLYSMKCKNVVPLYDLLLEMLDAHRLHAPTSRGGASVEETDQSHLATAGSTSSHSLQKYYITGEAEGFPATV

Cc1ccc(-c2csc3ncnc(NS(=O)(=O)c4ccc(Cl)cc4)c23)cc1
EC50 [1]: 4.44 µM (active)
AC50 [2]: 9.42 µM (active)
EC50 (Streptococcus): 66.7 µM (active)
EC50 (Streptokinase A): 16.2 µM (active)
IC50 [3]: 35.5 µM (active)

COCCCn1c2nc3ccccc3nc2c2c(=O)n(-c3ccccc3OC)c(C)nc21
EC50 (Estrogen receptor): 12.7 µM (not active)

O=C(Oc1ccccc1)c1c(Cl)cccc1P(=O)(O)O
IC50 [4]: 6.43 µM (active)

CCOC(=O)CSc1n[nH]c(NC(=O)c2cccc(C(F)(F)F)c2)n1
AC50 (Cytochrome P450 2C9): 5.01 µM (inconclusive)
AC50 [5]: 11.3 µM (active)
AC50 (Cytochrome P450 2C19): 2.51 µM (inconclusive)
EC50 (Protein RecA): 12.4 µM (active)
IC50 (Prothrombin): 0.515 µM (active)

CCOc1ccc(C(=O)c2cc([N+](=O)[O-])ccc2N2CCOCC2)cc1
IC50 [6]: 0.263 µM (active)
AC50 (Paired box protein Pax-8): < 0.26 µM (active)
IC50 [7]: < 0.25 µM (active)
AC50 (INS1): 0.775 µM (active)
EC50 (BJ [8]): 0.401 µM (inconclusive)
EC50 (BJ [9]): 0.406 µM (active)
EC50 (BJ [10]): < 0.104 µM (active)
EC50 (BJ [11]): 0.632 µM (active)
IC50 [12]: 0.0558 µM (active)
EC50 [13]: 0.358 µM (active)

CN1C(=O)C(Cc2c[nH]c3ccccc23)C(=O)N(C)C1=O
IC50 (14-3-3 protein gamma): > 50 µM (not active)

COC(=O)CC(=O)Cc1nc(N)nc(Nc2ccc(C)c(C)c2)n1
EC50 [14]: > 50 µM (not active)

— ChEMBL document CHEMBL1201862, “PubChem BioAssay data set” (2004)
